Measured values reported in patent US20250084416A1, “TARGETING OF XKR8 IN THERAPIES” (University of Pittsburgh - Of the Commonwealth System of …, priority 2022, published 2025).

What was measured:
hXkr8 mRNA = experiment: qRT-PCR of Xkr8 mRNA in cultured human tumor cells (HT-29, PANC-1); format: cell-based; settings: for Xkr8 mRNA expression: 24 h treatment
Procedure: (§1) To examine the effect of different chemotherapeutic agents on the expression level of Xkr8 mRNA, CT26, Panc02, PANC-1 or HT29 cells were treated with various concentrations of FuOXP, DOX or PTX. Twenty-four h later, cells were collected and subjected to qRT-PCR of mXkr8 or hXkr8 as detailed below.
(§2) To examine the impact of ActD treatment on the expression level of Xkr8 mRNA, CT26 or PANC-1 tumor cells were treated with FuOXP (10 μM) for 12 h followed by addition of ActD (2 μM). At 2 or 4 h following ActD treatment, cells were collected and subjected to qRT-PCR of Xkr8 mRNA as described below. In another study, cells were treated with NAC (2.5 mM) for 12 h followed by treatment with FuOXP, DOX or PTX for another 12 h. qRT-PCR of Xkr8 mRNA was then similarly performed.
(§3) Tumor tissues or cells collected from the above experiments were subjected to RNA extraction by TRIzol™. cDNA was generated from the purified RNA using QuantiTect Reverse Transcription Kit (Qiagen, MD, USA) according to the manufacturer's instructions. Quantitative real-time PCR was performed using SYBR Green Mix on a 7900 HT PCR instrument (Applied Biosystems, MA, USA). Relative target mRNA levels were analyzed using delta-delta-Ct calculations and normalized to GAPDH.

mXkr8 mRNA = experiment: qRT-PCR of Xkr8 mRNA in cultured murine tumor cells (CT26, Panc02); format: cell-based; settings: for Xkr8 mRNA expression: 24 h treatment
Procedure: as §1, §2, §3

hXkr8 protein = experiment: Western blot of hXkr8 protein in HT29 and PANC-1 cells; format: cell-based, human; settings: PANC-1 cells; NAC 12 h then drug 12 h
Procedure: Analysis of hXkr8 protein level by Western blot: Cultured HT29 or PANC-1 cells received similar treatments as described above. Cells were then lysed with RIPA lysis buffer (Thermo Fisher Scientific, MA, USA) by gently shaking on ice for 30 min. After centrifugation at 12,300 RPM for 10 min, the supernatants were collected, and the concentrations of proteins were measured using Pierce BCA Protein Assay Kit (ThermoFisher Scientific, MA, USA). The protein samples were denatured by boiling for 5 min and loaded onto 10% SDS-PAGE gel for electrophoresis. The proteins in the gels were subsequently transferred onto PVDF membranes (Bio-Rad, CA, USA). The membranes were then incubated in blocking buffer (5% non-fat dry milk in TBST) for 1 h at RT, followed by incubation with anti-hXkr8 polyclonal antibody (ThermoFisher Scientific, MA, USA) in antibody dilution buffer (5% BSA in TBST, 1/2000 dilution) with gentle agitation overnight at 4° C. After washing with TBST for three times, the membranes were subsequently incubated with the secondary HRP-linked goat anti-rabbit IgG antibody (Cell Signaling Technology, MA, USA) for 1 h at RT. After another three washes with TBST, the membranes were incubated with Pierce™ ECL Western Blotting Substrate (ThermoFisher Scientific, MA, USA) for 1 min. Protein expression was normalized against β-Tubulin expression.

[1] = tested on: luciferase in MC38-Luc cells; experiment: In vitro luciferase gene knockdown; format: cell-based, murine; settings: 1 h pretreatment prior to siLUC NP transfection
HUVECa and CT26 cells = experiment: Transwell co-culture transcytosis (HUVECa upper, CT26 lower chamber); format: cell-based; settings: endocytosis inhibitor
Procedure: To explore a potential role of transcytosis in tumor targeting, a co-culture experiment with HUVECa and CT26 cells using a Transwell plate was conducted.

CT26 tumor cells = experiment: Surface PS on CT26 tumor cells and EVs (Annexin V flow); format: cell-based, murine; settings: CT26 tumor cells in vitro
Procedure: Effect of Xkr8 knockdown on the PS expression levels of tumor cells and EVs following FuOXP treatment: CT26 cancer cells were first treated with siXkr8 NPs for 72 h and then treated with FuOXP/siXkr8-coloaded NPs for another 24 h. EVs were isolated from culture medium using gradient ultra-centrifugation according to a previously established protocol^48. Briefly, culture medium was collected and centrifuged for 20 min at 1,800 RPM at 4° C. to clear dead cells and cell debris. The supernatant was then transferred to a polycarbonate ultracentrifuge tube and centrifuged at 9,000 RPM for 35 min at 4° C. to collect larger EVs. The supernatant was centrifuged again at 30,000 RPM for 80 min at 4° C. and the pellet was resuspended in 100 μL of PBS for smaller EVs collection. The levels of surface PS on tumor cells and EVs were analyzed by flow using BV421-labeled Annexin V. For detection of EVs by flow cytometry, electronic “Height” (-H) parameter rather than the “Area” (-A) parameter was used to allow optimal signal detection.

COc1cccc2c1C(=O)c1c(O)c3c(c(O)c1C2=O)C[C@@](O)(C(=O)CO)C[C@@H]3O[C@H]1C[C@H](N)[C@H](O)[C@H](C)O1 [DOX, doxorubicin]
Xkr8 mRNA expression (hXkr8 mRNA; HT-29 cells): Induction | Xkr8 mRNA expression (hXkr8 mRNA; PANC-1 cells): Induction | Xkr8 mRNA expression (mXkr8 mRNA; CT26 cells): Induction | Xkr8 mRNA expression (mXkr8 mRNA; Panc02 cells): Induction

CC(=O)N[C@@H](CS)C(=O)O [NAC, N-acetylcysteine]
effect of pretreatment on Xkr8 mRNA induction by the 3 drugs (hXkr8 mRNA; PANC-1 cells, NAC 12 h then drug 12 h): partially attenuated | effect of pretreatment on Xkr8 mRNA induction by the 3 drugs (mXkr8 mRNA; CT26 cells, NAC 12 h then drug 12 h): partially attenuated | effect of pretreatment on Xkr8 protein induction by the 3 drugs (hXkr8 protein): partially attenuated

CC(=O)O[C@H]1C(=O)[C@@]2(C)[C@H]([C@H](OC(=O)c3ccccc3)[C@]3(O)C[C@H](OC(=O)[C@H](O)[C@@H](NC(=O)c4ccccc4)c4ccccc4)C(C)=C1C3(C)C)[C@]1(OC(C)=O)CO[C@@H]1C[C@@H]2O [PTX, paclitaxel]
Xkr8 mRNA expression (hXkr8 mRNA; HT-29 cells): Induction | Xkr8 mRNA expression (hXkr8 mRNA; PANC-1 cells): Induction | Xkr8 mRNA expression (mXkr8 mRNA; CT26 cells): Induction | Xkr8 mRNA expression (mXkr8 mRNA; Panc02 cells): Induction

N=C(N)NC(=O)c1nc(Cl)c(N)nc1N [amiloride]
efficiency of silence after inhibitor pretreatment [1]: drastically attenuated

CN(C)CCCN1c2ccccc2Sc2ccc(Cl)cc21 [chlorpromazine]
efficiency of silence after inhibitor pretreatment [1]: drastically attenuated

C=C1[C@@H](C)[C@H]2[C@H](Cc3ccccc3)NC(=O)[C@]23[C@H](OC(C)=O)/C=C/[C@@](C)(O)C(=O)[C@@H](C)C/C=C/[C@H]3[C@@H]1O [cytochalasin D]
efficiency of silence after inhibitor pretreatment [1]: drastically attenuated

O=C(N/N=C/c1ccc(O)c(O)c1)c1cc2ccccc2cc1O [dynasore]
effect on transcytosis-mediated transfection of CT26 cells (HUVECa and CT26 cells): significantly inhibited | efficiency of silence after inhibitor pretreatment [1]: drastically attenuated

CCCCC[C@@H](O)[C@H]1C(=O)O[C@H](C)[C@@H](O)/C=C/C=C/C=C/C=C/C=C(\C)[C@@H](O)C[C@H](O)C[C@H](O)C[C@H](O)C[C@H](O)C[C@H](O)C[C@@H]1O [filipin]
efficiency of silence after inhibitor pretreatment [1]: drastically attenuated

siXkr8: Murine Xkr8 siRNA, Seq ID No 1 and 2, siRNA ID 164623 (chain 1 GGCACAAAUUUUAUGCCUG; chain 2 CAGGCAUAAAAUUUGUGCC; RNA, backbone not given here; further chemistry not fully specified; listed as Mus musculus)
level of surface PS (Annexin V+ cells) (CT26 tumor cells): almost abolished
